This assay has as its system guinea pig ventricular myocytes. Briefly: frequency-dependent effects on action potential duration (APD90) in isolated ventricular myocytes. It counts as cell-based. The note with it: for APD90 percent change at 0.01 µM / APD90 percent change at 0.03 µM / APD90 percent change at 0.1 µM: Cavia porcellus, Ventricular myocyte; for APD90 percent change at 0.01 µM: 10 nM; for APD90 percent change at 0.03 µM: 30 nM; for APD90 percent change at 0.1 µM: 100 nM; for APD90 % Change: Washout. The procedure:
Guinea pig ventricular myocytes were isolated using a modification of the procedure described by Mitra R and Morad M., "A Uniform Enzymatic Method for Dissociation of Myocytes from Hearts and Stomachs of Nertilorates", Am. J. Physiol. 249:H1056-60 (1985). Excised hearts were perfused through the aorta (retrograde fashion) at a rate of 10 ml/min with oxygenated, warmed (37° C.) solutions described below. The heart was initially perfused for 7 minutes with a Tyrode's solution containing, in mM: 132 NaCl, 4 KCl, 1.2 MgCl2, 10 HEPES (formal name N-2-Hydroxyethylpiperazine-N-2-ethanesulfonic acid), 5 glucose, pH=7.2. The head was then perfused with the same nominally Ca^2+ -free solution containing 150 units/ml Type II collagenase (Worthington) and 0.5 units/ml Type XIV protease (Sigma) for 8 minutes. This perfusate was followed by a Tyrode's solution containing 0.2 mM CaCl2 (without enzymes) for 5 minutes. The digested ventricles were cut into small pieces and gently shaken until cells were visibly dispersed. The cells were stored at room temperature until use, within 8 hours after isolation.
Cell preparation: Same as described in section I.
Transmembrane action potential measurements were made using a technique similar to that described previously by Salata, J. J. and Wasserstrom, J. A. "Effects of quinicline on action potentials and ionic currents in isolated canine ventricular myocytes", Circ. Res. 62:324-337, 1988. The isolated ventricular myocytes were transferred to a glass bottom experimental perfusion chamber (12×25 mm) filled with a HEPES-Tyrode's solution containing in mM: 132 NaCl, 4 KCl, 1.8 CaCl2, 1.2 MgCl2, 10 HEPES, 5 glucose, pH=7.2 to a height of 2 mm. After the myocytes settled to the bottom of the chamber, they were continuously superfused with preheated HEPES-Tyrode's solution at a rate of 2.0 ml/min. The temperature was monitored and maintained at 36°±0.5° C. The experimental chamber was placed on the stage of an inverted microscope (Nikon Diaphot-TMD) to view the cells. Transmembrane potentials were recorded by means of conventional glass microelectrodes that were filled with 3M KCl and had tip resistances of 40-60 M.OMEGA.. The microelectrode was connected through a Ag--AgCl electrode to the headstage preamplifier (model HS-2, gain=1.0) of an operational amplifier with a high input impedance and variable input capacitance neutralization (Axoclamp -2A, Axon Instruments, Foster City, Calif.). The voltage drop across the microelectrode produced by current injection was compensated electronically with an active bridge circuit immediately-before impalement of a cell. The experimental bath was grounded through a 3M KCl agar bridge and a Ag--AgCl junction. The microelectrodes were positioned carefully at the cell surface using a hydraulic micromanipulator (Narishige Model MO-303, Greenvale, N.Y.). Penetration of the cell membrane was achieved by briefly (1-3 msec)increasing the input capacitance neutralization to cause oscillation of the amplifier. After establishing a stable microelectrode seal, the myocyte was lifted off the bottom of the chamber to allow complete superfusion of the cell. Action potentials were generated by passing current pulses of 1 msec in duration, and with an intensity of 1.2 times threshold at varying stimulus rates through the recording electrode. Cells were allowed to stabilize for 20 minutes before collection of data began. Voltage signals were digitized using an analog to digital converter (TL-1, DMA interface, Axon Instruments, Foster City, Calif.) at a sampling frequency of 2 kHz. Data acquisition and analysis were performed with pClamp software (Axon Instruments, Foster City, Calif.) and an AST 486 computer (Irvine, Calif.). Action potentials were stimulated at rates of either 60, 120, and 180 beats/min and were allowed to stabilized for 1 minute at each rate. […]

Structures are written as SMILES.

`CN1C(=O)[C@H](NC(=O)/C=C/c2ccc(Cl)cc2Cl)N=C(c2ccccc2)c2ccccc21` [Example 26, E-(+)-N-[(3R)-2,3-Dihydro-1-methyl-2-oxo-5-phenyl-1H-1,4-benzo-diazepin-3-yl]-3-(2,4-dichlorophenyl)-2-propenamide]: under “60 beats/min”, the APD90 percent change at 0.01 µM is 9.4%, the APD90 percent change at 0.03 µM was 16%, the APD90 percent change at 0.1 µM was 24.7% and the “APD90 % Change” value amounted to 4.2%. For the same compound, for the setting “120 beats/min”, the APD90 percent change at 0.01 µM worked out at 10.1%, the APD90 percent change at 0.03 µM is 14.8%, the APD90 percent change at 0.1 µM was determined as 24.3% and the “APD90 % Change” value stood at 5.3%. In addition, for the setting “180 beats/min”, the APD90 percent change at 0.01 µM is 12.4%, the APD90 percent change at 0.03 µM stood at 14.4%, the APD90 percent change at 0.1 µM worked out at 22.9% and the “APD90 % Change” value is recorded as 5.9%. Also, the “reversibility of APD90 increase” value (after 20 min of washout) was “nearly completely reversible”. In addition, the “frequency dependence of APD90 increase” value (at higher concentrations) is on record as “frequency-independent manner”. Moreover, where the note is “at lower concentrations (10 nM)”, the “frequency dependence of APD90 increase” value is given as “forward frequency-dependent manner”. Besides, the “effect on action potential duration” value (isolated guinea pig myocytes) was “concentration and rate-dependent increases in the action potential duration”.

These data come from patent US5428031A, “Methods of treating cardiac arrhythmia” (priority 1993, dated 1995).
